Laboratory results published in patent publication US10981021B2, “Method for transiently disrupting a region of the blood-brain barrier of a human” (Carthera, priority 2016, dated 2021).
Where “and” joins values, the source holds several entries; their conditions need not be identical. Equal entries are not always repeated.

System: recurrent glioblastoma (GBM)
Assay: Clinical trial: monthly ultrasound BBB opening followed by carboplatin in recurrent glioblastoma patients
Source text: Patients experiencing recurrence (first, second or third) of a histologically proven de novo glioblastoma (GBM), previously treated with at least the first line standard of care were included (i.e. radiation with concurrent and adjuvant temozolomide). Patients had to have a growing contrast-enhancing tumor of less than 35 mm in diameter and be eligible for carboplatin-based chemotherapy.
The trial was designed as a dose escalation study (Simon et al. 1997) in which the US pressure was increased throughout the study starting at 0.5 and increasing to 1.1 MPa through 5 different “dose” levels (0.50, 0.65, 0.80, 0.95, and 1.1 MPa).
A minimum of three patients were included at each dose level. If none of the patients experienced a dose-limiting toxicity (DLT), the next dose level was opened. If one patient experienced a DLT, three additional patients were enrolled at that dose level.
Patients received US activation and BBB disruption every four weeks. The first treatment was performed at the initial “dose” level for the inclusion group, the second treatment at the next highest dose level, etc. Patients were treated monthly for up to a maximum of six treatments or until there was evidence of tumor progression.
All patients were assessed monthly using MR imaging, blood sampling, and clinical neurological evaluation. Two days prior to each planned ultrasound treatment, tumor status was evaluated on MRI according to the Response Assessment in Neuro-Oncology (RANO) Criteria (Wen et al. 2010). Progression-free survival (PFS) and overall survival (OS) were also assessed. Patients left the study if tumor progression was identified, which defined progression as an increase in tumor size of more than 25% or an increase in T2/FLAIR or as a neurological status degradation (Wen et al. 2010).
In the absence of tumor progression and significant toxicity, the BBB opening session followed by carboplatin injection was scheduled two days after. […]
Carboplatin dose (AUC, area under the curve) administration was calculated based on the Calvert formula taking into account renal function. […]

[1] = per patient, recurrent GBM, monthly US (0.5-1.1 MPa) + SonoVue BBB opening followed by i.v. carboplatin AUC 4-6

## N.N.O=C([O-])C1(C(=O)[O-])CCC1.[Pt+2] [Carboplatin]
GBM patients, carboplatin perfusion started within 60 minutes after US BBB opening
  cerebral carboplatin-related toxicity: No cerebral carboplatin-related toxicity was observed
[1]
  Duration on-study: 3 months (4×) and 2 months (6×) and 2.5 months and >5 months and >4 months and 4 months and still on study
  Tumor Progression (MRI, FLAIR/ T1Gd) in the acoustic: Yes (5×) and No (9×) and slight
